Data published in ChEMBL document CHEMBL1201862, “PubChem BioAssay data set” (2004).
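48-hour exposure; five concentrations; linearly interpolated endpoints. GI50: concentration for 50% inhibition of growth.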 Calls of active or inactive are those of the source. No stated cut-off is given here; in the data, active = GI50 up to about 1.1 µM and inactive = higher.

Key:
Assay in all cases: growth of human tumour cells (NCI), 48 h
IGROV-1 = tested on: IGROV-1
SK-MEL-2 = tested on: SK-MEL-2
MDA-N = tested on: MDA-N
Hs-578T = tested on: Hs-578T
LOX IMVI = tested on: LOX IMVI
HOP-92 = tested on: HOP-92
SK-MEL-5 = tested on: SK-MEL-5
OVCAR-5 = tested on: OVCAR-5
TK-10 = tested on: TK-10
SF-295 = tested on: SF-295
UACC-257 = tested on: UACC-257
OVCAR-8 = tested on: OVCAR-8
DU-145 = tested on: DU-145
ACHN = tested on: ACHN
PC-3 = tested on: PC-3
786-0 = tested on: 786-0
SK-MEL-28 = tested on: SK-MEL-28
SF-268 = tested on: SF-268
SR = tested on: SR
SNB-19 = tested on: SNB-19

Measured: GI50

CCOC(=O)c1[nH]cc(C)c1-c1ccc2c(-c3ccccc3)nc3ccccc3n12
inactive: IGROV-1 3.66 µM | SK-MEL-2 4.29 µM | MDA-N 2.66 µM | Hs-578T 2 µM | LOX IMVI 3.44 µM | HOP-92 3.52 µM | SK-MEL-5 2.37 µM | OVCAR-5 15.8 µM | TK-10 3.21 µM | SF-295 3.52 µM | UACC-257 5.3 µM | OVCAR-8 4.25 µM | DU-145 3.8 µM | ACHN 4.01 µM | PC-3 3.01 µM | 786-0 3.56 µM | SK-MEL-28 3.89 µM | SF-268 3.94 µM | SR 1.62 µM

C=CCN1CCC2(CC1)NC(=O)c1ccccc1O2
inactive: IGROV-1 > 100 µM | SK-MEL-2 > 100 µM | SNB-19 > 100 µM | MDA-N > 100 µM | Hs-578T > 100 µM | LOX IMVI > 100 µM | HOP-92 > 100 µM | SK-MEL-5 > 100 µM | OVCAR-5 > 100 µM | TK-10 > 100 µM | SF-295 > 100 µM | UACC-257 > 100 µM | OVCAR-8 > 100 µM | DU-145 > 100 µM | ACHN > 100 µM | PC-3 > 100 µM | 786-0 > 100 µM | SK-MEL-28 > 100 µM | SF-268 > 100 µM | SR > 100 µM

CCCCCCCCC(=O)NCCN(CCN)C(=O)CCCCCCCC
inactive: IGROV-1 7.46 µM | SK-MEL-2 15.1 µM | SNB-19 8.55 µM | MDA-N 5.6 µM | Hs-578T 8.38 µM | LOX IMVI 3.85 µM | HOP-92 14 µM | SK-MEL-5 10.3 µM | OVCAR-5 15.8 µM | TK-10 14.6 µM | SF-295 4.99 µM | UACC-257 18.4 µM | OVCAR-8 10.7 µM | DU-145 13.6 µM | ACHN 8.67 µM | PC-3 10.7 µM | 786-0 4.9 µM | SK-MEL-28 14.9 µM | SF-268 6.87 µM | SR 2.69 µM

CC(=O)N1N=C(c2ccc3ccccc3c2O)CC1c1ccc(Cl)cc1Cl (configuration not stated)
inactive: IGROV-1 22.4 µM | SK-MEL-2 > 100 µM | MDA-N 24.4 µM | Hs-578T 39.1 µM | HOP-92 54.6 µM | SK-MEL-5 33.7 µM | OVCAR-5 > 100 µM | TK-10 52.7 µM | SF-295 31.6 µM | UACC-257 44.2 µM | OVCAR-8 59 µM | DU-145 > 100 µM | ACHN 29.6 µM | PC-3 17.1 µM | 786-0 18.9 µM | SK-MEL-28 93.1 µM | SF-268 26.9 µM | SR 5.21 µM

COc1ccc(CC2C3=C(CCN2C(=O)C2CCC2)CC2(CC3)OCCO2)cc1O (configuration not stated)
inactive: IGROV-1 35.1 µM | SK-MEL-2 49.3 µM | SNB-19 45.6 µM | MDA-N 12.1 µM | Hs-578T 30.6 µM | LOX IMVI > 100 µM | HOP-92 62.8 µM | SK-MEL-5 30.3 µM | OVCAR-5 > 100 µM | TK-10 30.7 µM | SF-295 20.5 µM | UACC-257 30.5 µM | OVCAR-8 58.5 µM | DU-145 26.5 µM | ACHN 84.1 µM | PC-3 31.3 µM | 786-0 35.2 µM | SK-MEL-28 55.2 µM | SF-268 35.2 µM | SR 10.5 µM

CCN(CC)CC1CCCCN1CC(=O)N1c2ccc(Br)cc2C(=O)Nc2cccnc21 (configuration not stated)
inactive: IGROV-1 > 100 µM | SK-MEL-2 > 100 µM | SNB-19 > 100 µM | MDA-N > 100 µM | Hs-578T > 100 µM | LOX IMVI > 100 µM | HOP-92 80.4 µM | SK-MEL-5 > 100 µM | OVCAR-5 > 100 µM | TK-10 > 100 µM | SF-295 > 100 µM | UACC-257 74.8 µM | OVCAR-8 > 100 µM | DU-145 > 100 µM | ACHN > 100 µM | PC-3 > 100 µM | 786-0 > 100 µM | SK-MEL-28 > 100 µM | SF-268 > 100 µM | SR 57 µM

O=C(/C=C/c1ccc(O)c(O)c1)OCCCOC(=O)/C=C/c1ccc(O)c(O)c1
inactive: IGROV-1 13.3 µM | SK-MEL-2 41.8 µM | SNB-19 31.4 µM | MDA-N 17.5 µM | Hs-578T 49.5 µM | LOX IMVI 12.4 µM | HOP-92 20 µM | SK-MEL-5 15.9 µM | OVCAR-5 27.4 µM | TK-10 29.3 µM | SF-295 18 µM | UACC-257 26.4 µM | OVCAR-8 22.8 µM | DU-145 34.8 µM | ACHN 16.2 µM | PC-3 30.5 µM | 786-0 20.2 µM | SK-MEL-28 36.6 µM | SF-268 23.9 µM | SR 17.2 µM
